# Laboratory results reported in patent US4361703A, “Para-amino(or nitro)phenyl N-acetylaminothioalkanoates” (priority 1977, dated 1982).
# Read-outs that look alike come from different tables or passages of the source.
# Experiments:
# [1] = system: yeast-inflamed hind-paw pain-threshold; test: Analgesic activity, Randall-Selitto test in rats; format: in vivo, female Charles River rats
# Procedure: (C)--Investigation of Analgesic Activity in Rats
# A control group received only the gum tragacanth vehicle.
# In order to evaluate the effect of the treatment upon pain-thresholds, pressure was applied both to the injected hind-paw and to the other non-injected hind-paw. The pain-threshold was noted as the pressure at which the rat flinched, measured using an Ugo Basile "Analgesimeter" for both hind-paws of each rat at intervals of 1 hour, 3 hours, 5 hours and 22 hours after the administration, and expressed as the percentage of the pain-threshold pressure for the injected (and thus inflamed) hind-paw as against the non-injected (and thus healthy) hind-paw.
# in vivo [2] = conditions: mouse, in vivo, po
# Procedure: (E)--Investigation of Acute Oral Toxicity in Mice
# Charles River (CD-1 COBS) albino mice, 20-22 g in weight, were kept for some days in an air-conditioned animal house and fed with a standard diet (sterile VAR granules). They were fasted overnight before experiment, with water ad libitum. 15 Male mice and 15 female mice were used for each experiment.
# N-Acetyl-para-aminophenol (NAPA) and N-acetyl-para-aminophenyl N'-acetyl-D,L-methionate (Compound A) were then administered to the mice, orally, as a suspension (shaken continuously with an electromagnetic agitator) in 5% gum arabic at a volume of 0.02 ml/g, either individually or in variously proportioned mixtures and at different dose levels, as shown in Table VII below.
# A control group received only the 5% gum arabic vehicle.
# [3] = Acute oral toxicity in rats; format: in vivo; conditions: rat, in vivo; for mortality at 144 h / mortality at 48 h / mortality at 72 h / mortality at 96 h / mortality at 120 h / mortality at 168 h / mortality at 24 h: po; for mortality at 144 h: 6 Days
# Procedure: (§1) (F)--Investigation of Acute Oral Toxicity in Rats
# (§2) The investigation was carried out upon groups of 10 male and 10 female albino rats (Charles River CD-1 COBS) of 80-100 g body weight. […] Before the experiment they were fasted overnight, with water ad libitum. NAPA and Compound A were then administered orally by oesophageal intubation as suspensions (continuously shaken with an electromagnetic agitator) in 1% gum arabic at a volume of 2 ml/100 g body weight, and at dose levels of 1, 2, 4 and 8 g/kg. A control group received orally, under the same experimental conditions, merely 2 ml/100 g of the suspension vehicle. The rats were then kept under observation during seven days, while their behaviour patterns were observed and the mortality recorded
# [4] = system: albino rats (Charles River CD-1 COBS); test: Acute oral toxicity in rats; format: in vivo
# Procedure: as §1, §2
# [5] = mouse, in vivo, po
# Procedure: (§3) (A)--Investigation of Serum Concentrations in Mice
# (§4) 36 Charles River COBS mice (18 males and 18 females) weighing 30 g each were deprived of food for 16 hours before the trial but were given their usual drinking water. Three groups, each containing 6 males and 6 females, received a dosage of 1 ml/100 g body weight per mouse, orally by stomach tube, of a suspension in 1% gum tragacanth of respectively:
# (§5) Group X: 500 mg/kg of N-acetyl-para-aminophenol
# (§6) A blood sample was taken by throat-slitting from one male and one female from each Group at each study time, i.e. 1/2, 1, 2, 4 and 24 hours after the oral administration.
# (§7) At times 1/2, 1, 2 and 4 hours, each serum sample was divided into three 0.1 ml trial samples for the following three determinations:
# in vivo [6] = conditions: mouse, po
# Procedure: as §3, §4, §5, §6, §7
# This determination was carried out by direct extraction, with no prior hydrolysis, according to an adaptation of the above-mentioned method.
# [7] = 1000 mg/kg, 1 g/kg oral, 10 F, read-out: Percentage Mortality
# [8] = 1000 mg/kg, 1 g/kg oral, 10 M, read-out: Percentage Mortality
# [9] = 1000 mg/kg, 1 g/kg oral, M & F, read-out: Percentage Mortality
# [10] = 2000 mg/kg, 2 g/kg oral, 10 F, read-out: Percentage Mortality
# [11] = 2000 mg/kg, 2 g/kg oral, 10 M, read-out: Percentage Mortality
# [12] = 2000 mg/kg, 2 g/kg oral, M & F, read-out: Percentage Mortality
# [13] = 4000 mg/kg, 4 g/kg oral, 10 F, read-out: Percentage Mortality
# [14] = 4000 mg/kg, 4 g/kg oral, 10 M, read-out: Percentage Mortality
# [15] = 4000 mg/kg, 4 g/kg oral, M & F, read-out: Percentage Mortality
# [16] = 4000 mg/kg, Percentage Mortality
# [17] = 8000 mg/kg, 8 g/kg oral, 10 F, read-out: Percentage Mortality
# [18] = 8000 mg/kg, 8 g/kg oral, 10 M, read-out: Percentage Mortality
# [19] = 8000 mg/kg, 8 g/kg oral, M & F, read-out: Percentage Mortality
# [20] = 8000 mg/kg, Percentage Mortality
compound,measurement,setting,value
"CC(=O)Nc1ccc(O)cc1 [NAPA, N-acetyl-para-aminophenol]",Percentage Pain-Threshold (injected vs non-injected paw),"[1]; 1 millimole/kg oral (NAPA 151, A 324 mg/kg), 1 hr. (3.5 hrs. from yeast)",45 ± 3.5 Percentage
same,Percentage Pain-Threshold (injected vs non-injected paw),"[1]; 1 millimole/kg oral (NAPA 151, A 324 mg/kg), 3 hrs. (5.5 hrs. from yeast)",48 ± 4.1 Percentage
same,Percentage Pain-Threshold (injected vs non-injected paw),"[1]; 1 millimole/kg oral (NAPA 151, A 324 mg/kg), 5 hrs. (7.5 hrs. from yeast)",47 ± 1.7 Percentage
same,Percentage Pain-Threshold (injected vs non-injected paw),"[1]; 1 millimole/kg oral (NAPA 151, A 324 mg/kg), 22 hrs. (24.5 hrs. from yeast)",43 ± 3.4 Percentage
same,Percentage Pain-Threshold (injected vs non-injected paw),"[1]; 2 millimoles/kg oral (NAPA 302, A 648 mg/kg), 1 hr. (3.5 hrs. from yeast)",50 ± 4.2 Percentage
same,Percentage Pain-Threshold (injected vs non-injected paw),"[1]; 2 millimoles/kg oral (NAPA 302, A 648 mg/kg), 3 hrs. (5.5 hrs. from yeast)",54 ± 4.0 Percentage
same,Percentage Pain-Threshold (injected vs non-injected paw),"[1]; 2 millimoles/kg oral (NAPA 302, A 648 mg/kg), 5 hrs. (7.5 hrs. from yeast)",53 ±3.9 Percentage
same,Percentage Pain-Threshold (injected vs non-injected paw),"[1]; 2 millimoles/kg oral (NAPA 302, A 648 mg/kg), 22 hrs. (24.5 hrs. from yeast)",54 ± 4.7 Percentage
same,P of pain-threshold (t-test versus control),"[1]; 2 millimoles/kg oral, 3 hrs.",< 0.05
same,LD50 at 24 h,in vivo [2],730 ± 65 mg/kg
same,LD50 at 168 h,in vivo [2],690 ± 65 mg/kg
same,mortality at 144 h,[3]; [7],0%
same,mortality at 48 h,[3]; [7],0%
same,mortality at 72 h,"[3]; 1000 mg/kg, 1 g/kg oral, 10 M, 3 Days, read-out: Percentage Mortality",10%
same,mortality at 96 h,"[3]; 1000 mg/kg, 1 g/kg oral, 10 M, 4 Days, read-out: Percentage Mortality",10%
same,mortality at 120 h,"[3]; 1000 mg/kg, 1 g/kg oral, 10 M, 5 Days, read-out: Percentage Mortality",10%
same,mortality at 144 h,[3]; [8],10%
same,mortality at 168 h,"[3]; 1000 mg/kg, 1 g/kg oral, 10 M, 7 Days, read-out: Percentage Mortality",10%
same,mortality at 24 h,"[3]; 1000 mg/kg, 1 g/kg oral, 10 M, 24 Hours, read-out: Percentage Mortality",10%
same,mortality at 48 h,[3]; [8],10%
same,mortality at 120 h,"[3]; 1000 mg/kg, 1 g/kg oral, M & F, 5 Days, read-out: Percentage Mortality",5%
same,mortality at 144 h,[3]; [9],5%
same,mortality at 48 h,[3]; [9],5%
same,mortality at 120 h,"[3]; 1000 mg/kg, Percentage Mortality",0%
same,mortality at 144 h,[3]; [10],0%
same,mortality at 48 h,[3]; [10],0%
same,mortality at 72 h,"[3]; 2000 mg/kg, 2 g/kg oral, 10 M, 3 Days, read-out: Percentage Mortality",10%
same,mortality at 96 h,"[3]; 2000 mg/kg, 2 g/kg oral, 10 M, 4 Days, read-out: Percentage Mortality",10%
same,mortality at 120 h,"[3]; 2000 mg/kg, 2 g/kg oral, 10 M, 5 Days, read-out: Percentage Mortality",10%
same,mortality at 144 h,[3]; [11],10%
same,mortality at 168 h,"[3]; 2000 mg/kg, 2 g/kg oral, 10 M, 7 Days, read-out: Percentage Mortality",10%
same,mortality at 24 h,"[3]; 2000 mg/kg, 2 g/kg oral, 10 M, 24 Hours, read-out: Percentage Mortality",10%
same,mortality at 48 h,[3]; [11],10%
same,mortality at 120 h,"[3]; 2000 mg/kg, 2 g/kg oral, M & F, 5 Days, read-out: Percentage Mortality",5%
same,mortality at 144 h,[3]; [12],5%
same,mortality at 48 h,[3]; [12],5%
same,mortality at 120 h,"[3]; 2000 mg/kg, Percentage Mortality",0%
same,mortality at 144 h,[3]; [13],70%
same,mortality at 168 h,"[3]; 4000 mg/kg, 4 g/kg oral, 10 F, 7 Days, read-out: Percentage Mortality",70%
same,mortality at 48 h,[3]; [13],70%
same,mortality at 72 h,"[3]; 4000 mg/kg, 4 g/kg oral, 10 M, 3 Days, read-out: Percentage Mortality",90%
same,mortality at 96 h,"[3]; 4000 mg/kg, 4 g/kg oral, 10 M, 4 Days, read-out: Percentage Mortality",90%
same,mortality at 120 h,"[3]; 4000 mg/kg, 4 g/kg oral, 10 M, 5 Days, read-out: Percentage Mortality",90%
same,mortality at 144 h,[3]; [14],90%
same,mortality at 168 h,"[3]; 4000 mg/kg, 4 g/kg oral, 10 M, 7 Days, read-out: Percentage Mortality",90%
same,mortality at 24 h,"[3]; 4000 mg/kg, 4 g/kg oral, 10 M, 24 Hours, read-out: Percentage Mortality",90%
same,mortality at 48 h,[3]; [14],90%
same,mortality at 144 h,[3]; [15],80%
same,mortality at 48 h,[3]; [15],80%
same,mortality at 24 h,[3]; [16],70%
same,mortality at 72 h,[3]; [16],70%
same,mortality at 96 h,[3]; [16],70%
same,mortality at 120 h,[3]; [16],70%
same,mortality at 168 h,[3]; [16],80%
same,mortality at 144 h,[3]; [17],100%
same,mortality at 48 h,[3]; [17],100%
same,mortality at 72 h,"[3]; 8000 mg/kg, 8 g/kg oral, 10 M, 3 Days, read-out: Percentage Mortality",100%
same,mortality at 96 h,"[3]; 8000 mg/kg, 8 g/kg oral, 10 M, 4 Days, read-out: Percentage Mortality",100%
same,mortality at 120 h,"[3]; 8000 mg/kg, 8 g/kg oral, 10 M, 5 Days, read-out: Percentage Mortality",100%
same,mortality at 144 h,[3]; [18],100%
same,mortality at 168 h,"[3]; 8000 mg/kg, 8 g/kg oral, 10 M, 7 Days, read-out: Percentage Mortality",100%
same,mortality at 24 h,"[3]; 8000 mg/kg, 8 g/kg oral, 10 M, 24 Hours, read-out: Percentage Mortality",90%
same,mortality at 48 h,[3]; [18],100%
same,mortality at 144 h,[3]; [19],100%
same,mortality at 48 h,[3]; [19],100%
same,mortality at 24 h,[3]; [20],100%
same,mortality at 72 h,[3]; [20],100%
same,mortality at 96 h,[3]; [20],100%
same,mortality at 120 h,[3]; [20],100%
same,mortality at 168 h,[3]; [20],100%
same,LD50 at 24 h,"[3]; oral, rats, Miller and Tainter method",3100 ± 500 mg/kg
same,LD50 at 168 h,"[3]; oral, rats, Miller and Tainter method, read-out: LD50 (7 days)",2850 ± 400 mg/kg
same,time of first deaths,"[4]; 8 g/kg oral, rats",eight hours after the administration at 8 g/kg dose level
same,mortality (in words),"[4]; oral, rats, 1-8 g/kg",Heavy mortality
same,Percentage Mortality,"[4]; rat, in vivo, po, 8000 mg/kg, 24 h",95 Percentage
same,"serum ""total"" or ""enzymatic"" NAPA profile",[5],slowly decreases but remains high up to 4 hours after oral administration
same,concentration at 2 h,"in vivo [6]; 500 mg/kg, Serum ""free NAPA""",97000 ng/mL
same,concentration at 4 h,"in vivo [6]; 500 mg/kg, Serum ""free NAPA""",32000 ng/mL
same,concentration at 4 h,in vivo [6]; 1073 mg/kg,32000 ng/mL
